According to PMC12830207, “Targeting the protein–protein interaction between the CDC37 cochaperone and client kinases by an allosteric RAF dimer breaker” (The Journal of Biological Chemistry, 2025):
“Also recorded” adds a separate entry of the source.

Columns and labels:
[1] = target: BRAF kinase domain; assay: Hydrogen–deuterium exchange MS; type: binding, human; details: BRAF^KD 10 μM, braftide 30 μM, pH 7.4, 20 s to 4.5 h, duplicate HDX–MS
Protocol: The 6XHIS-BRAF KD (residues 442–723, supplementary information 1) was purified as previously reported ([39]) with the human sequence expressed in Escherichia coli. The KD contains 16 solubilizing mutations (I543A, I544S, I551K, Q562R, L588N, K630S, F667E, Y673S, A688R, L706S, Q709R, S713E, L716E, S720E, P722S, and K723G), which were determined to preserve kinase activity and increase protein expression in E. coli. Mutations of the 16 residues are not involved in MEK1 interactions ([40], [41]). […] Protein induction was induced by 1 mM IPTG, 16 °C in a shaking incubator, 200 RPM. The pellet was lysed in a buffer containing 50 mM Hepes (pH 7.4), 250 mM NaCl, 50 mM KCl, 10 mM imidazole, 10 mM β-mercaptoethanol, 10% glycerol, and 1X protease inhibitor (Roche) under sonication. […] Protein fractions were analyzed on SDS-PAGE, pooled, and flash frozen for analytical use.
The exchange times varied from 20 s to 4.5 h. […] Peptides were identified through MS/MS analysis of nondeuterated samples, with data analyzed using SEQUEST (Thermo Proteome Discoverer) against a database containing sequences of BRAF^KD, braftide, pepsin, potential contaminants, and decoy proteins. Deuterated samples were analyzed using ExMS2 software (developed by Englander Lab at University of Pennsylvania).

[2] = test system: CDC37–BRAF interaction; assay: Co-IP of CDC37-FLAG with BRAF-V5 in HCT116; type: cell-based; details: HCT116, 5 µM braftide, three biological replicates
Protocol: HEK293 cells were seeded at 1(10)^6 cells per well for a 6-well plate or 5(10)^6 for 10 cm dishes and incubated until 40% to 60% confluency. Transfection was carried out using a 1:3 DNA:PEI-MAX ratio in OPTI-MEM and allowed 48 h for protein expression. For peptide assays, 48 h post-transfection, cells were treated with TAT–braftide carried in OPTI-MEM at indicated concentrations. Cells were harvested in cold PBS. Harvested cells were lysed in 4% SDS or modified radioimmunoprecipitation assay (RIPA) for co-IP experiments. Quantification of total protein by the bicinchoninic acid assay was carried out according to the manufacturer's protocols (Pierce; catalog no.: 23225).
Transfected HEK293 cells were treated with the indicated treatments and harvested in cold PBS. […] Samples were analyzed via immunoblot.
Western blot band densities were quantified with ImageJ software (National Institutes of Health) and normalized to the indicated loading control. Statistical significance was determined through one-/two-way ANOVA, where indicated, followed by Tukey's honest significant difference post hoc test with corresponding p values (∗p < 0.05, ∗∗p < 0.002, ∗∗∗p < 0.0002, and ∗∗∗∗p < 0.0001). […]

[3] = test system: CRAF–CDC37 interaction; assay: NanoBiT luminescence CDC37–RAF interaction reporter assay, CRAF^SmBiT–CDC37^LgBiT; type: cell-based, human (HEK293); details: HEK293, 25 μM braftide, 4 h, 1 μM bortezomib pretreatment 5 h, 10 μM furimazine, 470 to 480 nm
Description: NanoBiT cytomegalovirus MCS BiBiT vector, which contains a BRAF N terminal fused with LgBiT and CRAF N terminal fused with SmBiT, was purchased from Promega. CDC37 LgBiT and CRAF SmBiT was generated using the standard Gibson Assembly (NEB HiFi Assembly) using NanoBiT BiBiT as the vector and following primers: 5′ […] 3′, 5′ […] 3′, and CDC37 LgBiT and BRAF SmBiT was generated using the standard Gibson Assembly using NanoBiT BiBiT as the vector and following primers: 5′ […] 3′, 5′ […] 3′. Primers were designed to introduce H20A, N22A, I23A triple mutation within the CDC37 FLAG tag and for NanoBiT construct CDC37(HNI/A) LgBit and BRAF SmBiT. Primers were designed to introduce the desired substitutions. The forward primer sequence was 5′ gccgcc[…] […]
Twenty-four hours post-transfection, cells were trypsinized, pelleted, resuspended in OptiMEM + 4% fetal bovine serum, and reseeded onto a 96-well plate at 5(10)^4 cells per well and then incubated at 37 °C overnight. […] After treatment, 10 μM furimazine substrate was added to each well, and luminescence readings were taken at 470 to 480 nm using a CLARIOstar plate reader. Statistical significance was determined through a paired t test where indicated, followed by Tukey's honest significant difference post hoc test with corresponding p values (∗p < 0.05, ∗∗p < 0.01, and ∗∗∗p < 0.001). […]

[4] = test system: RAF kinase; details: in vitro and in cells; cited from earlier work
Description: The sequence of braftide mirrors the residues spanning the tail end of the αC helix and a region known as the αC helix–β4 loop, which includes three key residues: BRAF R509, L515, and M517, critical for RAF dimerization.

Substance: GRKKRRQRRRPQ-miniPEG-TRHVNILLFM [Braftide]
- braftide binding region on BRAF KD / change in deuterium uptake [1]: slows deuterium incorporation compared to apo BRAF^KD; also recorded: essentially no change except in the dimer interface region
- braftide binding region on BRAF KD / change in deuterium uptake ([1]; listed as braftide): spanning amino acids 496 to 515
- CDC37–BRAF interaction [2]: decreases its association with coimmunoprecipitated BRAF-V5 and CRAF-HA
- CDC37–BRAF interaction ([2]; listed as braftide): reduced the CDC37–RAF interaction at lower doses than in HEK293 cells
- NanoBiT luminescence, CRAF^SmBiT–CDC37^LgBiT [3]: reduction in luminescence, reflecting a decrease in the CDC37–RAF interaction
- RAF kinase activity [4]: inhibits RAF kinase activity
- paradoxical activation induced by ATP-competitive inhibitors [4]: mitigates paradoxical activation induced by ATP-competitive inhibitors, both in vitro and in cells
